Legend:
Assay type in all cases: in vivo
[1] = system: Chilo suppressalis; test: Example B4: Chilo suppressalis (Striped Rice Stemborer); conditions: 144 h, application rate of 200 ppm, artificial diet, L2 larvae, 6 days after infestation, read-out: control in at least one of the three categories (mortality, anti-feedant or growth inhibition)
Method: Example B4: Chilo suppressalis (Striped Rice Stemborer)
24-well microtiter plates with artificial diet were treated with aqueous test solutions prepared from 10′000 ppm DMSO stock solutions by pipetting. After drying, the plates were infested with L2 larvae (6-8 per well). The samples were assessed for mortality, anti-feeding effect, and growth inhibition in comparison to untreated samples 6 days after infestation. Control of Chilo suppressalis by a test sample is given when at least one of the categories mortality, anti-feedant effect, and growth inhibition is higher than the untreated sample.

[2] = system: Plutella xylostella; test: Example B5: Plutella xylostella (Diamond Back Moth); conditions: 192 h, application rate of 200 ppm, 24-well artificial diet, eggs, 8 days after infestation, read-out: control in at least one of the two categories (mortality or growth inhibition)
Method: Example B5: Plutella xylostella (Diamond Back Moth)
24-well microtiter plates with artificial diet were treated with aqueous test solutions prepared from 10′000 ppm DMSO stock solutions by pipetting. After drying, Plutella eggs were pipetted through a plastic stencil onto a gel blotting paper and the plate was closed with it. The samples were assessed for mortality and growth inhibition in comparison to untreated samples 8 days after infestation.

[3] = system: Diabrotica balteata; test: Example B1: Diabrotica balteata (Corn Root Worm); conditions: 96 h, application rate of 200 ppm, sprayed maize sprouts, L2 larvae, 4 days after infestation, read-out: control in at least one of the two categories (mortality or growth inhibition)
Method: Example B1: Diabrotica balteata (Corn Root Worm)
Maize sprouts placed onto an agar layer in 24-well microtiter plates were treated with aqueous test solutions prepared from 10′000 ppm DMSO stock solutions by spraying. After drying, the plates were infested with L2 larvae (6 to 10 per well). The samples were assessed for mortality and growth inhibition in comparison to untreated samples 4 days after infestation.

[4] = system: Euschistus heros; test: Example B2: Euschistus heros (Neotropical Brown Stink Bug); conditions: 120 h, application rate of 200 ppm, sprayed soybean leaves, N2 nymphs, 5 days after infestation, read-out: control in at least one of the two categories (mortality or growth inhibition)
Method: Example B2: Euschistus heros (Neotropical Brown Stink Bug)
Soybean leaves on agar in 24-well microtiter plates were sprayed with aqueous test solutions prepared from 10′000 ppm DMSO stock solutions. After drying the leaves were infested with N2 nymphs. The samples were assessed for mortality and growth inhibition in comparison to untreated samples 5 days after infestation.

[5] = system: Myzus persicae; test: Example B8: Myzus persicae (Green Peach Aphid): Intrinsic Activity; conditions: 120 h, test rate of 12 ppm, 24-well sucrose solution under Parafilm, 5 days after infestation
From the text: Example B8: Myzus persicae (Green Peach Aphid): Intrinsic Activity
Test compounds prepared from 10′000 ppm DMSO stock solutions were applied by pipette into 24-well microtiter plates and mixed with sucrose solution. The plates were closed with a stretched Parafilm. A plastic stencil with 24 holes was placed onto the plate and infested pea seedlings were placed directly on the Parafilm. The infested plate was closed with a gel blotting paper and another plastic stencil and then turned upside down. The samples were assessed for mortality 5 days after infestation.

[6] = system: Myzus persicae; test: Example B11: Myzus persicae (Green Peach Aphid), 96-well sucrose solution; conditions: 120 h, application rate of 50 ppm, 96-well sucrose solution under Parafilm, 5 days after infestation
From the text: Example B11: Myzus persicae (Green Peach Aphid)
Test compounds prepared from 10′000 ppm DMSO stock solutions were applied by a liquid handling robot into 96-well microtiter plates and mixed with a sucrose solution. Parafilm was stretched over the 96-well microtiter plate and a plastic stencil with 96 holes was placed onto the plate. Aphids were sieved into the wells directly onto the Parafilm. The infested plates were closed with a gel blotting card and a second plastic stencil and then turned upside down. The samples were assessed for mortality 5 days after infestation.

[7] = system: Plutella xylostella; test: Example B12: Plutella xylostella (Diamondback Moth), 96-well artificial diet; conditions: 216 h, application rate of 500 ppm, eggs, 9 days after infestation
Method: Example B12: Plutella xylostella (Diamondback Moth)
96-well microtiter plates containing artificial diet were treated with aqueous test solutions, prepared from 10′000 ppm DMSO stock solutions, by a liquid handling robot. After drying, eggs (˜30 per well) were infested onto a netted lid which was suspended above the diet. The eggs hatch and L1 larvae move down to the diet. The samples were assessed for mortality 9 days after infestation.

[8] = system: Spodoptera littoralis; test: Example B9: Spodoptera littoralis (Egyptian Cotton Leaf Worm), cotton leaf disc spray; conditions: foliar, 72 h, application rate of 200 ppm, sprayed cotton leaf discs, L1 larvae, 3 days after infestation, read-out: control in at least one of the three categories (mortality, anti-feedant or growth inhibition)
[9] = system: Myzus persicae; test: Example B7: Myzus persicae (Green Peach Aphid): Systemic Activity; conditions: 144 h, test rate of 24 ppm, roots of pea seedlings in test solution, 6 days
Method: Example B7: Myzus persicae (Green Peach Aphid): Systemic Activity
Roots of pea seedlings infested with an aphid population of mixed ages were placed directly into aqueous test solutions prepared from 10′000 DMSO stock solutions. The samples were assessed for mortality 6 days after placing seedlings into test solutions.

CC(NC(=O)c1cc(Cl)nc(C(F)(F)F)c1)c1nccnc1-c1ncccn1 (stereo not drawn) [P1, 2-chloro-N-[1-(3-pyrimidin-2-ylpyrazin-2-yl)ethyl]-6-(trifluoromethyl)pyridine-4-carboxamide]
≥ 80%: percent control (mortality, anti-feedant effect or growth inhibition) at 200 ppm [1] | percent control (mortality or growth inhibition) at 200 ppm [2] | percent control (mortality or growth inhibition) at 200 ppm [3] | percent control (mortality or growth inhibition) at 200 ppm [4]

CC(NC(=O)c1cc(C(F)(F)F)cc(S(=O)(=O)C(F)(F)F)c1)c1nccnc1-c1ncccn1 (stereo not drawn) [P19, N-[1-(3-pyrimidin-2-ylpyrazin-2-yl)ethyl]-3-(trifluoromethyl)-5-(trifluoromethylsulfonyl) benzamide]
≥ 80%: mortality at 12 ppm [5] | mortality at 50 ppm [6] | mortality at 500 ppm [7] | percent control (mortality, anti-feedant effect or growth inhibition) at 200 ppm [1] | percent control (mortality, anti-feedant effect or growth inhibition) at 200 ppm [8] | percent control (mortality or growth inhibition) at 200 ppm [2] | percent control (mortality or growth inhibition) at 200 ppm [3]

CC(NC(=O)c1cc(C(F)(F)F)cc(C(F)(F)C2CC2)c1)c1nccnc1-c1ccc(Br)cn1 (stereo not drawn) [P21, N-[1-[3-(5-bromo-2-pyridyl)pyrazin-2-yl]ethyl]-3-[cyclopropyl(difluoro)methyl]-5-(trifluoromethyl) benzamide]
≥ 80%: mortality at 500 ppm [7] | percent control (mortality or growth inhibition) at 200 ppm [2] | percent control (mortality or growth inhibition) at 200 ppm [4]

CC(NC(=O)c1cc(C(F)(F)F)cc(C2(C#N)CC2)c1)c1nccnc1-c1ccccn1 (stereo not drawn) [P22, 3-(1-cyanocyclopropyl)-N-[1-[3-(2-pyridyl)pyrazin-2-yl]ethyl]-5-(trifluoromethyl) benzamide]
≥ 80%: mortality at 50 ppm [6] | mortality at 500 ppm [7] | percent control (mortality, anti-feedant effect or growth inhibition) at 200 ppm [1] | percent control (mortality, anti-feedant effect or growth inhibition) at 200 ppm [8] | percent control (mortality or growth inhibition) at 200 ppm [2] | percent control (mortality or growth inhibition) at 200 ppm [3]

CC(NC(=O)c1cc(C(F)(F)F)cc(C2(C#N)CC2)c1)c1nccnc1-c1ccc(F)cn1 (stereo not drawn) [P23, 3-(1-cyanocyclopropyl)-N-[1-[3-(5-fluoro-2-pyridyl)pyrazin-2-yl]ethyl]-5-(trifluoromethyl) benzamide]
≥ 80%: mortality at 50 ppm [6] | mortality at 500 ppm [7] | percent control (mortality or growth inhibition) at 200 ppm [2]

CC(NC(=O)c1cc(C(F)(F)F)cc(C2(C#N)CC2)c1)c1nccnc1-c1ncccn1 (stereo not drawn) [P25, 3-(1-cyanocyclopropyl)-N-[1-(3-pyrimidin-2-ylpyrazin-2-yl)ethyl]-5-(trifluoromethyl)benzamide]
≥ 80%: mortality at 12 ppm [5] | mortality at 50 ppm [6] | mortality at 500 ppm [7] | percent control (mortality, anti-feedant effect or growth inhibition) at 200 ppm [1] | percent control (mortality, anti-feedant effect or growth inhibition) at 200 ppm [8] | mortality at 24 ppm [9] | percent control (mortality or growth inhibition) at 200 ppm [2] | percent control (mortality or growth inhibition) at 200 ppm [3] | percent control (mortality or growth inhibition) at 200 ppm [4]

CC(NC(=O)c1cc(C(F)(F)F)nc(C2(C#N)CC2)c1)c1nccnc1-c1ccccn1 (stereo not drawn) [P26, 2-(1-cyanocyclopropyl)-N-[1-[3-(2-pyridyl)pyrazin-2-yl]ethyl]-6-(trifluoromethyl)pyridine-4-carboxamide]
≥ 80%: mortality at 50 ppm [6] | mortality at 500 ppm [7] | percent control (mortality, anti-feedant effect or growth inhibition) at 200 ppm [1] | percent control (mortality, anti-feedant effect or growth inhibition) at 200 ppm [8] | percent control (mortality or growth inhibition) at 200 ppm [2] | percent control (mortality or growth inhibition) at 200 ppm [3]

CC(NC(=O)c1cc(C(F)(F)F)cc(C(F)(F)C2CC2)c1)c1nccnc1-c1ncccn1 (stereo not drawn) [P30, 3-[cyclopropyl(difluoro)methyl]-N-[1-(3-pyrimidin-2-ylpyrazin-2-yl)ethyl]-5-(trifluoromethyl)benzamide]
≥ 80%: mortality at 12 ppm [5] | percent control (mortality, anti-feedant effect or growth inhibition) at 200 ppm [1] | percent control (mortality, anti-feedant effect or growth inhibition) at 200 ppm [8] | percent control (mortality or growth inhibition) at 200 ppm [2] | percent control (mortality or growth inhibition) at 200 ppm [3] | percent control (mortality or growth inhibition) at 200 ppm [4]

CC(NC(=O)c1cc(C2CC2C(F)(F)F)cc(C(F)(F)F)c1)c1nccnc1-c1ncccn1 (stereo not drawn) [P37, N-[1-(3-pyrimidin-2-ylpyrazin-2-yl)ethyl]-3-(trifluoromethyl)-5-[2-(trifluoromethyl)cyclopropyl] benzamide]
≥ 80%: mortality at 12 ppm [5] | mortality at 500 ppm [7] | percent control (mortality, anti-feedant effect or growth inhibition) at 200 ppm [1] | percent control (mortality, anti-feedant effect or growth inhibition) at 200 ppm [8] | percent control (mortality or growth inhibition) at 200 ppm [2] | percent control (mortality or growth inhibition) at 200 ppm [3]

CC(NC(=O)c1cc(C2CC2)cc(C(F)(F)F)c1)c1nccnc1-c1ncccn1 (stereo not drawn) [P41, 3-cyclopropyl-N-[1-(3-pyrimidin-2-ylpyrazin-2-yl)ethyl]-5-(trifluoromethyl)benzamide]
≥ 80%: mortality at 12 ppm [5] | percent control (mortality, anti-feedant effect or growth inhibition) at 200 ppm [1] | percent control (mortality, anti-feedant effect or growth inhibition) at 200 ppm [8] | percent control (mortality or growth inhibition) at 200 ppm [2] | percent control (mortality or growth inhibition) at 200 ppm [3]

Cc1cnc(-c2nccnc2C(C)NC(=O)c2cc(C(F)(F)F)cc(C(C)(C)C#N)c2)nc1 (stereo not drawn) [P48, 3-(1-cyano-1-methyl-ethyl)-N-[1-[3-(5-methylpyrimidin-2-yl)pyrazin-2-yl]ethyl]-5-(trifluoromethyl)benzamide]
≥ 80%: percent control (mortality, anti-feedant effect or growth inhibition) at 200 ppm [1] | percent control (mortality, anti-feedant effect or growth inhibition) at 200 ppm [8] | percent control (mortality or growth inhibition) at 200 ppm [2] | percent control (mortality or growth inhibition) at 200 ppm [4]

CC(NC(=O)c1cc(C(F)(F)F)cc(C(C)(C)C#N)c1)c1nccnc1-c1ncccn1 (stereo not drawn) [P50, 3-(1-cyano-1-methyl-ethyl)-N-[1-(3-pyrimidin-2-ylpyrazin-2-yl)ethyl]-5-(trifluoromethyl)benzamide]
≥ 80%: mortality at 12 ppm [5] | percent control (mortality, anti-feedant effect or growth inhibition) at 200 ppm [1] | percent control (mortality, anti-feedant effect or growth inhibition) at 200 ppm [8] | mortality at 24 ppm [9] | percent control (mortality or growth inhibition) at 200 ppm [2] | percent control (mortality or growth inhibition) at 200 ppm [3] | percent control (mortality or growth inhibition) at 200 ppm [4]

CC(NC(=O)c1cc(C(F)(F)F)nc(C2(C#N)CC2)c1)c1nccnc1-c1ncc(Br)cn1 (stereo not drawn) [P55, N-[1-[3-(5-bromopyrimidin-2-yl)pyrazin-2-yl]ethyl]-2-(1-cyanocyclopropyl)-6-(trifluoromethyl)pyridine-4-carboxamide]
≥ 80%: mortality at 12 ppm [5] | percent control (mortality, anti-feedant effect or growth inhibition) at 200 ppm [1] | percent control (mortality, anti-feedant effect or growth inhibition) at 200 ppm [8] | percent control (mortality or growth inhibition) at 200 ppm [2] | percent control (mortality or growth inhibition) at 200 ppm [3] | percent control (mortality or growth inhibition) at 200 ppm [4]

— patent US12527325B2, “Pesticidally active diazine-amide compounds” (SYNGENTA CROP PROTECTION AG, priority 2019, dated 2026)
